The numbers were not newly measured in patent publication US7098239B2, “Dipeptidyl peptidase inhibitors for the treatment of diabetes” (Merck & Co., Inc, priority 2001, dated 2006), which cites them from elsewhere.

One data set concerns cardiac allograft. Conditions: rats; survival doubled from day 7 to day 14.
A further data set deals with hematopoiesis. Conditions: mouse model of cyclophosphamide-induced neutropenia.
The next data set addresses T1, DP-IV (Homo sapiens, UniProt P27487).
T1 construct: GRF is rapidly degraded in plasma to GRF[3–44]

T1 sequence (P27487 39-766 limits assumed): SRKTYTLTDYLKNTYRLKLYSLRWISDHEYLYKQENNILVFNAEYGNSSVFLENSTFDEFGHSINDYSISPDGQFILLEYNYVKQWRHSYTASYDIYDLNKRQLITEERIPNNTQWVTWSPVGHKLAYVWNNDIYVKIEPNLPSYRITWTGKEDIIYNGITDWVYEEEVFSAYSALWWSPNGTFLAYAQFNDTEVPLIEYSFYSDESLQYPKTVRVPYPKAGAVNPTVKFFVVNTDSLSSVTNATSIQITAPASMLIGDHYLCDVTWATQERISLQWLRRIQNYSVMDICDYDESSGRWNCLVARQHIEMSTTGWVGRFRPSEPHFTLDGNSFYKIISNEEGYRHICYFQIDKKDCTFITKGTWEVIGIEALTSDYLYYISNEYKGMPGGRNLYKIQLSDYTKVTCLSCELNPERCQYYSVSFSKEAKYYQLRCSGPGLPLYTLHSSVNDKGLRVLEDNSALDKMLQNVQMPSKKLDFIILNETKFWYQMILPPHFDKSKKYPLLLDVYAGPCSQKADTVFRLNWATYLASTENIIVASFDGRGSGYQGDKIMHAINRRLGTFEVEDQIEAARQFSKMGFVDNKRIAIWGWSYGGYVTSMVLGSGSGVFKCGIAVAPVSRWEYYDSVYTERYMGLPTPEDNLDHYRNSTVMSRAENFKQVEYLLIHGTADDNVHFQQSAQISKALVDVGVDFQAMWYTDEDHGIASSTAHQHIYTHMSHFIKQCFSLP

For `CC(C)N1CCC(c2ccccc2)(c2ccccc2)CC1` [Prodipine, Pro-Pro-diphenyl-phosphonate], the cardiac allograft survival in the data set on cardiac allograft is on record as 14 day.

With `CC(C)[C@H](N)C(=O)N1CCC[C@H]1B(O)O` [Val-Boro-Pro], the hematopoiesis entry with hematopoiesis is “stimulates hematopoiesis”.

Turning to diprotin A, the “degradation of GRF in plasma to GRF[3-44]” value at DP-IV is reported as “prevented”.
